Blank lines part the entries; values can stand above or below the compound they belong to.
What was measured:
[1] = system: Liver microsome; assay: Drug level in human liver microsomes assessed as compound formation treated with 2 uM [14C]brivanib alaninate for 60 mins by LC/MS analysis in presence of NADPH; assay type: ADME; conditions: 1 h
[2] = system: Liver cytosol; assay: Drug level in human liver cytosol treated with 2 uM [14C](R)-1-(4-(4-fluoro-2-(hydroxymethyl)-1H-indol-5-yloxy)-5-methylpyrrolo[1,2-f][1,2,4]triazin-6-yloxy)propan-2-ol for 60 mins by LC/MS analysis in presence of NADPH; assay type: ADME, tissue-based
[3] = system: Liver cytosol; assay: Drug level in human liver cytosol treated with 2 uM [14C](R)-1-(4-(4-fluoro-2-(hydroxymethyl)-1H-indol-5-yloxy)-5-methylpyrrolo[1,2-f][1,2,4]triazin-6-yloxy)propan-2-ol for 60 mins by LC/MS analysis; assay type: ADME, tissue-based
[4] = system: Liver microsome; assay: Drug metabolism in human liver microsomes assessed as (R)-1-(4-(4-fluoro-2-(hydroxymethyl)-1H-indol-5-yloxy)-5-methylpyrrolo[1,2-f][1,2,4]triazin-6-yloxy)propane-2-sulfonic acid at 2 uM for 60 mins by LC/MS analysis in presence of NADPH; assay type: ADME
[5] = system: Liver microsome; assay: Drug metabolism in human liver microsomes assessed as (R)-4-fluoro-5-(5-methyl-6-(2-sulfopropoxy)pyrrolo[1,2-f][1,2,4]triazin-4-yloxy)-1H-indole-2-carboxylic acid at 2 uM for 60 mins by LC/MS analysis in presence of NADPH; assay type: ADME
[6] = system: Liver microsome; assay: Drug metabolism in human liver microsomes assessed as compound oxidation at 2 uM for 60 mins by LC/MS analysis in absence of NADPH; assay type: ADME; conditions: 1 h
[7] = target: Cytochrome P450 2D6 (Homo sapiens, UniProt P10635); assay: Activity of human CYP2D6 assessed as compound formation treated with 2 and 20 uM brivanib for 20 mins by LC/MS analysis in presence of NADPH; assay type: ADME
Sequence of Cytochrome P450 2D6 (P10635 whole entry): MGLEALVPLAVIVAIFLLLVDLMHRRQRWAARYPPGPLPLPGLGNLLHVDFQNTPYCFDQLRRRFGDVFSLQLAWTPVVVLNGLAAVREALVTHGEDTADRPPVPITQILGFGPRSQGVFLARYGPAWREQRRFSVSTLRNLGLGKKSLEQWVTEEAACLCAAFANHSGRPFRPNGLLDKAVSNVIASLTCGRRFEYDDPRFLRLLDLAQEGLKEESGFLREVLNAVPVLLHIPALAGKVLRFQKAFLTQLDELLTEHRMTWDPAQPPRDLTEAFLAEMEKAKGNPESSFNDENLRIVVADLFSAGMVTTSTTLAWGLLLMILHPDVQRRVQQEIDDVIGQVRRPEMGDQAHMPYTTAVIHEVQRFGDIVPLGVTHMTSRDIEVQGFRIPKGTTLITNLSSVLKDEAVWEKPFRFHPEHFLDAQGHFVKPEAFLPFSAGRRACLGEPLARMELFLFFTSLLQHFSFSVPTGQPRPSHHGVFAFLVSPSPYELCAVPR

[8] = target: Cytochrome P450 3A5 (Homo sapiens, UniProt P20815); assay: Activity of human CYP3A5 assessed as compound formation treated with 2 and 20 uM brivanib for 20 mins by LC/MS analysis in presence of NADPH; assay type: ADME
Sequence of Cytochrome P450 3A5 (P20815 whole entry): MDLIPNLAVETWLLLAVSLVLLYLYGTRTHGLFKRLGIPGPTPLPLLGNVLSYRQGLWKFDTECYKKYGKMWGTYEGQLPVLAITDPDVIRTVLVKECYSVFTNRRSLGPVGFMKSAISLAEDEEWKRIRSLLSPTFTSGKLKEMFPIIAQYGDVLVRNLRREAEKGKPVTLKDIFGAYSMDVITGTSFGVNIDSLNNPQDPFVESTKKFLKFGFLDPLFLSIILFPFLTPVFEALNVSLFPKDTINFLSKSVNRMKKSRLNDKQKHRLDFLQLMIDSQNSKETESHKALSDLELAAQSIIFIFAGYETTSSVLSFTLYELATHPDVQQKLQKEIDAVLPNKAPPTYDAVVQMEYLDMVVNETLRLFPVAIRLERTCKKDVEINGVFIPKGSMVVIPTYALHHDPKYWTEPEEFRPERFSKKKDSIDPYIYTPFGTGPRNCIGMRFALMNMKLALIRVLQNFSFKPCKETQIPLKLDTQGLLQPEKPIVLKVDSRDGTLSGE

[9] = target: Cytochrome P450 2C19 (Homo sapiens, UniProt P33261); assay: Activity of human CYP2C19 assessed as compound formation treated with 2 and 20 uM brivanib for 20 mins by LC/MS analysis in presence of NADPH; assay type: ADME
Sequence of Cytochrome P450 2C19 (P33261 whole entry): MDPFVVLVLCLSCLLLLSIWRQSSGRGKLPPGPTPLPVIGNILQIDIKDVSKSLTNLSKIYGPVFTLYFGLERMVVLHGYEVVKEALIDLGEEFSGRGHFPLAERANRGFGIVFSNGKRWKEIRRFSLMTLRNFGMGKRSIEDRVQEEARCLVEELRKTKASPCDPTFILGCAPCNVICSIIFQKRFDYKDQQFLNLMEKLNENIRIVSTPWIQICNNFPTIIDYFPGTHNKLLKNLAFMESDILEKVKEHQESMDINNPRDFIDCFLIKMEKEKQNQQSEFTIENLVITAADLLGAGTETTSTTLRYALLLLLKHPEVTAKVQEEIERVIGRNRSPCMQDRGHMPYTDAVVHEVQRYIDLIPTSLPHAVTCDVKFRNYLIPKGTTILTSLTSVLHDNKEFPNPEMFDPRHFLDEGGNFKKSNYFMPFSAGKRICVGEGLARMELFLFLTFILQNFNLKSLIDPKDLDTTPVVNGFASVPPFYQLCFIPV

[10] = target: T1, Cytochrome P450 2C8 (Homo sapiens, UniProt P10632); assay: Activity of human CYP2C8 assessed as compound formation treated with 2 and 20 uM brivanib for 20 mins by LC/MS analysis in presence of NADPH; assay type: ADME
T1 sequence (P10632 whole entry): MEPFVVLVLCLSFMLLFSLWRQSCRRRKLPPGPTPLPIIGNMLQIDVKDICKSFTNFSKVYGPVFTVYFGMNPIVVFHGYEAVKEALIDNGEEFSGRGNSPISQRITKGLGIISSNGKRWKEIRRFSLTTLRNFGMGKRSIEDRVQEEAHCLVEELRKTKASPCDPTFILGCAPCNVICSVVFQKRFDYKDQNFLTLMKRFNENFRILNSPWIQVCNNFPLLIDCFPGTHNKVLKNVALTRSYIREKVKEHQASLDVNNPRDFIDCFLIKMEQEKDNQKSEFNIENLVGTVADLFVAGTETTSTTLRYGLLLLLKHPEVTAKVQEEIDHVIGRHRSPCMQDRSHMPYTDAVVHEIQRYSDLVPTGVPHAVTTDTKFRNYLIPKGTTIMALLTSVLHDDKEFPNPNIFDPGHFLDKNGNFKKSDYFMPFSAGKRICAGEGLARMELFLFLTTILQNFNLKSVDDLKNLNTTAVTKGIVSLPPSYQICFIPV

[11] = target: T2, Cytochrome P450 2A6 (Homo sapiens, UniProt P11509); assay: Activity of human CYP2A6 assessed as compound formation treated with 2 and 20 uM brivanib for 20 mins by LC/MS analysis in presence of NADPH; assay type: ADME
T2 sequence (P11509 whole entry): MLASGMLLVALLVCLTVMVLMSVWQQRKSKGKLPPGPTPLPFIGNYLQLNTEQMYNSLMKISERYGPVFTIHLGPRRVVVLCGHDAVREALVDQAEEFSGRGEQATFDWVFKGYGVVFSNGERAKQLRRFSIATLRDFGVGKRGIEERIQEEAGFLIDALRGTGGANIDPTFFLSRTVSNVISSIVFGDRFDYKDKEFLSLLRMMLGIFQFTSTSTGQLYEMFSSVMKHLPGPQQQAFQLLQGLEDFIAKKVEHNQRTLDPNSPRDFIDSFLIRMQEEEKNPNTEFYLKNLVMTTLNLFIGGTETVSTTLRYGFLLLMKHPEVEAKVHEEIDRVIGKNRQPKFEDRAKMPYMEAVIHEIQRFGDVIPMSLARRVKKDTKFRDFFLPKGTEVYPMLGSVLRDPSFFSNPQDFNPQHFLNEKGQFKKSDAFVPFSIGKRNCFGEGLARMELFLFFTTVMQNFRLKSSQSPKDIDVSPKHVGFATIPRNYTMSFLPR

[12] = target: T3, Cytochrome P450 2B6 (Homo sapiens, UniProt P20813); assay: Activity of human CYP2B6 assessed as compound formation treated with 2 and 20 uM brivanib for 20 mins by LC/MS analysis in presence of NADPH; assay type: ADME
T3 sequence (P20813 whole entry): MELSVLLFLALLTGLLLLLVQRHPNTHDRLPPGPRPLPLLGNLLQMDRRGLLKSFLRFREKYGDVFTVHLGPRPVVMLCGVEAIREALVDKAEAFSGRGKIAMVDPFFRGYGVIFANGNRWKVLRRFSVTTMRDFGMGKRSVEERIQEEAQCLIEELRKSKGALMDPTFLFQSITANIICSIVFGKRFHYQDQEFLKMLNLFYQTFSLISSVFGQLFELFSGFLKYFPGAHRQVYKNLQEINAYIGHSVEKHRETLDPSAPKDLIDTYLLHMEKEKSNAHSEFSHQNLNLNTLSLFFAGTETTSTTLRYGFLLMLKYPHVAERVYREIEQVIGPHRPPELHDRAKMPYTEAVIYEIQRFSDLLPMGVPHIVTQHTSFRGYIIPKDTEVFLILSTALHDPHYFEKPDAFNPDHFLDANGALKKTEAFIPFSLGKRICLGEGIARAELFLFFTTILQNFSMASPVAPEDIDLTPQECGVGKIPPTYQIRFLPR

[13] = target: Cytochrome P450 2C9 (Homo sapiens, UniProt P11712); assay: Activity of human CYP2C9 assessed as compound formation treated with 2 and 20 uM brivanib for 20 mins by LC/MS analysis in presence of NADPH; assay type: ADME
Sequence of Cytochrome P450 2C9 (P11712 whole entry): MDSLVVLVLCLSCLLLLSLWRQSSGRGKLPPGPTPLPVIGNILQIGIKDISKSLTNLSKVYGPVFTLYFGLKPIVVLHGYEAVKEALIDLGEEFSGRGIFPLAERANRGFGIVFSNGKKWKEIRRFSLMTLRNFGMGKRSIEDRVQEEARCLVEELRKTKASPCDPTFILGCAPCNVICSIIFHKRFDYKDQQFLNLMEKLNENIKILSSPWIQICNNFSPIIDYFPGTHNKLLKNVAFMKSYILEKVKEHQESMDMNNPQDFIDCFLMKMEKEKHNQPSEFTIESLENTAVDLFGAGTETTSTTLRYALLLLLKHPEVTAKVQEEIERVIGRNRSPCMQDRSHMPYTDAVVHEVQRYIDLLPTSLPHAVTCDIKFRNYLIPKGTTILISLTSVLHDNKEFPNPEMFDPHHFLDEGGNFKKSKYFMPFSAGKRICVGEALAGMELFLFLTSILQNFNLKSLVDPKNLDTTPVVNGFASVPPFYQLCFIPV

[14] = system: Liver microsome; assay: Drug level in human liver microsomes treated with 2 and 20 uM brivanib for 30 mins by LC/MS analysis in presence of 2 uM CYP2A6 inhibitor tranylcypromine; assay type: ADME; conditions: 0.5 h
[15] = system: Liver microsome; assay: Drug level in human liver microsomes treated with 2 and 20 uM brivanib for 30 mins by LC/MS analysis in presence of 50 uM CYP2B6 inhibitor orphenadrine; assay type: ADME; conditions: 0.5 h
[16] = system: Liver microsome; assay: Drug level in human liver microsomes treated with 2 and 20 uM brivanib for 30 mins by LC/MS analysis in presence of 3 uM CYP2C8 inhibitor montekulast; assay type: ADME; conditions: 0.5 h
[17] = target: Cytochrome P450 1A1 (Homo sapiens, UniProt P04798); assay: Activity of human CYP1A1 assessed as compound formation treated with 2 and 20 uM brivanib for 20 mins by LC/MS analysis in presence of NADPH; assay type: ADME
Sequence of Cytochrome P450 1A1 (P04798 whole entry): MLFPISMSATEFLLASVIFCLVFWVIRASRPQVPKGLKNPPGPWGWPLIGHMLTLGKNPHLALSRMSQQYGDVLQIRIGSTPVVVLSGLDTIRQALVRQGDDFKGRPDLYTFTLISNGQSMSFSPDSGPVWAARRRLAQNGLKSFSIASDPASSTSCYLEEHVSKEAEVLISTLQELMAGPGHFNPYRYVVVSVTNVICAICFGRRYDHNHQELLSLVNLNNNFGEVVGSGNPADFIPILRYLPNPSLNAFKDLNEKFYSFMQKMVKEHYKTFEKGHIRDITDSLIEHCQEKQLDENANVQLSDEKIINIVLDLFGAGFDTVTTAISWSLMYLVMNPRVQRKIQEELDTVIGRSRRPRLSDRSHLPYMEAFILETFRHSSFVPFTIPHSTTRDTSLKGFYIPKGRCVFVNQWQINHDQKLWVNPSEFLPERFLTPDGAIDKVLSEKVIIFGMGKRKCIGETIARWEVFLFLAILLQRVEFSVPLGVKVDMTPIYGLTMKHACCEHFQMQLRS

[18] = target: T4, Cytochrome P450 1A2 (Homo sapiens, UniProt P05177); assay: Activity of human CYP1A2 assessed as compound formation treated with 2 and 20 uM brivanib for 20 mins by LC/MS analysis in presence of NADPH; assay type: ADME
T4 sequence (P05177 whole entry): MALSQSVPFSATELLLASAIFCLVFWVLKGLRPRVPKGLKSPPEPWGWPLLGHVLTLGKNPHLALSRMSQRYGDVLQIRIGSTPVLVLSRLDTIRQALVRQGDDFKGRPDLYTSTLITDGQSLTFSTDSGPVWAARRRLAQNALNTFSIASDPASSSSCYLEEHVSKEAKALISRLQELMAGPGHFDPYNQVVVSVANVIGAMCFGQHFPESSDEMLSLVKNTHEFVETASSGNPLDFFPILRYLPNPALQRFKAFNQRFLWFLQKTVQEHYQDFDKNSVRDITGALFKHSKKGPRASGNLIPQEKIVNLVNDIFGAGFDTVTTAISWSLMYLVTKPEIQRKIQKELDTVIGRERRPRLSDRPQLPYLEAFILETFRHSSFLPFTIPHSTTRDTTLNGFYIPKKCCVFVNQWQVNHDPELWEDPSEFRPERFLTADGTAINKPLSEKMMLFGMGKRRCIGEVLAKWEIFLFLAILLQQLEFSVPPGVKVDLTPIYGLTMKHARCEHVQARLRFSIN

[19] = target: Cytochrome P450 1B1 (Homo sapiens, UniProt Q16678); assay: Activity of human CYP1B1 assessed as compound formation treated with 2 and 20 uM brivanib for 20 mins by LC/MS analysis in presence of NADPH; assay type: ADME
Sequence of Cytochrome P450 1B1 (Q16678 whole entry): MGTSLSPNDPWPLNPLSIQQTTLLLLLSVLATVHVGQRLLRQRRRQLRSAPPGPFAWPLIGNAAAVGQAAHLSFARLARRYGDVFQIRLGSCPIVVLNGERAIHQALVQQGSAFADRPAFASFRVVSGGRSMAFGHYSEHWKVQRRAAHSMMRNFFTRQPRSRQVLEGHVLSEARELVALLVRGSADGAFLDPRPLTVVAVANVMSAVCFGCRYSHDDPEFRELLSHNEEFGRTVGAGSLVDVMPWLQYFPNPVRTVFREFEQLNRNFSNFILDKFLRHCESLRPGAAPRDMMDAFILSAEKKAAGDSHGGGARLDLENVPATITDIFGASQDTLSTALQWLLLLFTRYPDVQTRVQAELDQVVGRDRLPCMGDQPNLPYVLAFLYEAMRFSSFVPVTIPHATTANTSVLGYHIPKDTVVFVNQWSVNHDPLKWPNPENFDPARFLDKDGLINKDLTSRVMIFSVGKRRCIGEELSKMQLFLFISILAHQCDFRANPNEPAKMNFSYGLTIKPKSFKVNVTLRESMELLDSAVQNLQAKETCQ

[20] = target: Cytochrome P450 3A4 (Homo sapiens, UniProt P08684); assay: Activity of human CYP3A4 assessed as compound formation treated with 2 and 20 uM brivanib for 20 mins by LC/MS analysis in presence of NADPH; assay type: ADME
Sequence of Cytochrome P450 3A4 (P08684 whole entry): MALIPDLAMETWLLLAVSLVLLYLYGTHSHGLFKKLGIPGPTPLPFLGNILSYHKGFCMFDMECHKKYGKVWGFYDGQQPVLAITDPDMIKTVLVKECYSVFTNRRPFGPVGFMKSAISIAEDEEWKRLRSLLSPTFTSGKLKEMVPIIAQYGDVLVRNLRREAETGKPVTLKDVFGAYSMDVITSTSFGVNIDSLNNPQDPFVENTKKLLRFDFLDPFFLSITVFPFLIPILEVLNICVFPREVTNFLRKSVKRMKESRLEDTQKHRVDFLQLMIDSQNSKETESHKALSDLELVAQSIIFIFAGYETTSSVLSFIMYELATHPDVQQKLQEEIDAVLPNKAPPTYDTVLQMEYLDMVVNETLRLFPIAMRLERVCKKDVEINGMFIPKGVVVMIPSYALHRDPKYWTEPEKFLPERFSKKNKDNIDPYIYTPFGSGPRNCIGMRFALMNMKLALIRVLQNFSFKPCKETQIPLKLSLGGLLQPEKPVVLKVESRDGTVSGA

[21] = system: Liver microsome; assay: Drug level in human liver microsomes treated with 2 and 20 uM brivanib for 30 mins by LC/MS analysis in presence of 10 uM CYP2C9 inhibitor sulfaphenazole; assay type: ADME; conditions: 0.5 h
[22] = system: Liver microsome; assay: Drug level in human liver microsomes treated with 2 and 20 uM brivanib for 30 mins by LC/MS analysis in presence of 1 uM CYP2D6 inhibitor quinidine; assay type: ADME; conditions: 0.5 h
[23] = system: Liver microsome; assay: Drug level in human liver microsomes treated with 2 and 20 uM brivanib for 30 mins by LC/MS analysis in presence of 50 uM CYP2E1 inhibitor diethyldithiocarbamate; assay type: ADME; conditions: 0.5 h

Drug metabolism [1]: metabolite_detected
SMILES: CC(=O)COc1cn2ncnc(Oc3ccc4[nH]c(C)cc4c3F)c2c1C

Drug metabolism [1]: metabolite_detected
Drug metabolism [2]: metabolite_detected
Drug metabolism [3]: metabolite_detected
SMILES: Cc1c(OC[C@@H](C)O)cn2ncnc(Oc3ccc4[nH]c(C(=O)O)cc4c3F)c12

Drug metabolism [4]: metabolite_detected
Drug metabolism [5]: metabolite_detected
Drug metabolism [6]: metabolite_not_detected
SMILES: Cc1cc2c(F)c(Oc3n[14cH]nn4cc(OC[C@@H](C)OS(=O)(=O)O)c(C)c34)ccc2[nH]1

Drug metabolism [7]: metabolite_detected
Drug metabolism [8]: metabolite_detected
Drug metabolism [9]: metabolite_detected
Drug metabolism [10]: metabolite_detected
Drug metabolism [11]: metabolite_detected
Drug metabolism [12]: metabolite_detected
Drug metabolism [13]: metabolite_detected
Drug metabolism [14]: metabolite_detected
Drug metabolism [15]: metabolite_detected
Drug metabolism [16]: metabolite_detected
Drug metabolism [17]: metabolite_detected
Drug metabolism [18]: metabolite_detected
Drug metabolism [19]: metabolite_detected
Drug metabolism [20]: metabolite_detected
Drug metabolism [21]: metabolite_detected
Drug metabolism [22]: metabolite_detected
Drug metabolism [23]: metabolite_detected
Drug metabolism [1]: metabolite_detected
SMILES: Cc1c(OC[C@@H](C)O)cn2ncnc(Oc3ccc4[nH]c(CO)cc4c3F)c12
